From ChEMBL document CHEMBL1151401, “Plant anticancer agents. XII. Isolation and structure elucidation of new cytotoxic quinones from Tabebuia cassinoides” (1982) come the findings set out here.

In brackets after ≈: the same amount, converted by molar mass. Activity calls are given as the source filed them. The calls are words filed in the database; no cut-off is given here.

For assay [1], the system named is KB. In words: Cytotoxicity against human KB cells. The following applies: read-out: ED50 (the source's name). It is filed as functional.
The subject of assay [2] is P388. As to the kind of experiment: In vivo cytotoxicity against mouse P388 cells at upto 35 mg/kg. It is filed as functional, organism-based. Set-up: dose 35 mg/kg.

With `CC(O)c1cc2c(o1)C(=O)c1ccccc1C2=O` (stereo not given), in assay [1], the EC50 was 2 mg/L (≈ 8.26 µM).

For `CC(O)c1cc2c(o1)C(=O)c1c(O)cccc1C2=O` (stereo not given), the EC50 in assay [1] came out at 1 mg/L (≈ 3.87 µM).

On to `CC(C)=CCC1=C(O)C(=O)c2ccccc2C1=O` [LAPACHOL], for which, in assay [1], the EC50 turned out to be 4.4 mg/L (≈ 18.2 µM).

As for `CC(=O)c1cc2c(o1)C(=O)c1ccccc1C2=O` [NAPABUCASIN], the EC50 in assay [1] was 1 mg/L (≈ 4.16 µM). Moreover, in assay [2], the outcome was inactive.
